For one assay, the target named is T1, 5-HT3 receptors (Rattus norvegicus, UniProt P35563).
T1 construct: from tissue; host or cells: isolated vagus nerve segments, Sprague-Dawley rat
T1 sequence (P35563 24-483): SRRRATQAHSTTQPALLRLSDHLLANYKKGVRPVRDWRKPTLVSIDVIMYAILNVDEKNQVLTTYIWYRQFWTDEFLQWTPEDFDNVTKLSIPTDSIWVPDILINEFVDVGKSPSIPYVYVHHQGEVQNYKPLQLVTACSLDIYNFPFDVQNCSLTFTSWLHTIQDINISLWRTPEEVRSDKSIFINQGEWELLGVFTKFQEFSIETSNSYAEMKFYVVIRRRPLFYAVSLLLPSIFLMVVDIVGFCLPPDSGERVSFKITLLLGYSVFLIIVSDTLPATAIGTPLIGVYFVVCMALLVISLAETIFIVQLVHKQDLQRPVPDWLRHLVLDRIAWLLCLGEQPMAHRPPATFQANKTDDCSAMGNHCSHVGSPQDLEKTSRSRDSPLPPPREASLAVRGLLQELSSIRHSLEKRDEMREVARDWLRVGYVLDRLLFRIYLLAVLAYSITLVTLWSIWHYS
Nature of the assay: 5-HT3 antagonistic activity in the rat vagus (antagonism of 5-HT depolarization of isolated vagus nerve, Schild analysis). Set-up: species or system rat (Sprague-Dawley). The following applies: for Kb: antagonism of 5-HT depolarization, rat vagus nerve in vitro, Schild analysis, read-out: pA2 (converted). As for the experimental part: Compound A, the compound of GB 2236528A and the compounds disclosed in GB 2213816A are tested for 5-HT3 antagonistic activity in the rat vagus by the following procedure:
The method is similar to that described by Ireland and Tyers, Br. J. Pharmac., 1987, 90, 229-238 and is dependent upon the ability of 5-HT to depolarize the vagus nerve in vitro.
Segments of the vagus nerve from Sprague-Dawley rats were placed in a perspex chamber and perfused with Krebs solution. Electrodes, positioned at either end of the nerve segment, were used to record the potential differences which ensued upon the addition of various concentrations of 5-HT to one end of the nerve segment.
Concentration-response curves to 5-HT were obtained in this manner prior to and following equilibration of the nerve segment with Krebs solution containing the test-substance.

Assay [1] can be described thus: Potential anxiolytic activity: mouse exploratory activity in a two-compartment light/dark box. Format: in vivo. The following applies: for minimal effective dose: Mus musculus, sc, read-out: minimum effective dose (MED). As for the experimental part:
Compound A, the compound of GB 2236528A and a representative number of compounds disclosed in GB 2213816A which had high pA2 values in the 5-HT3 -antagonist test procedure given above were tested for potential anxiolytic activity by a test procedure measuring mouse exploratory activity in a two-compartment light/dark box based upon the procedure of B Costall et al, Neuropharmacology, 1987, 26, 195-200 and J. N. Crawley et al, Pharmac. Biochemo Behav., 1980, 13, 167-170. The test involves observing groups of mice placed in an open topped box, one third of which is painted black and illuminated under a dim red light and partitioned from the remainder of the box which is painted white and brightly illuminated. Access between the two sections is via an opening in the centre of the partition. The groups of mice are treated with vehicle or test compound and various behavioural parameters of the animals are measured including the number of exploratory rearings made by the mice in each section and the number of times the mice cross lines marked on the floor of each section. For each treatment group the mean numbers of line crossings and rears in each section of the box are calculated. Differences between drug-treated groups and vehicle-treated controls are compared using Student's unpaired t-test. […] Test compounds are considered to be active if they induce a similar set of changes and, in particular, if they produce a significant (p<0.05) increase in rearing activity in the light section of the box.

The mark [2] stands for this setting: significant (p<0.05) increase in rearing activity in the light section.

Turning to `CN1[C@@H]2CC[C@H]1C[C@@H](NC(=O)NC(=O)c1ccccc1OCC1CC1)C2` [Compound of GB 2236528A, (endo)-N-[[(8-methyl-8-azabicyclo[3.2.1]octan-3-yl)amino]carbonyl]-2-(cyclopropylmethoxy]benzamide], on 5-HT3 receptors, the Kb is 1.26 nM. Besides, the minimal effective dose in assay [1] (setting [2]) was determined as 10 µg/kg.
As for `O=C(NC(=O)c1ccccc1OCC1CC1)N[C@H]1C[C@H]2CC[C@@H](C1)N2` [Compound A, (endo)-N-[[[8-azabicyclo[3.2.1]-octan-3-yl]amino]carbonyl]-2-(cyclopropylmethyloxy)benzamide], the Kb at 5-HT3 receptors is 0.398 nM. Also, the “potency as 5-HT3 antagonist compared with GB 2236528A and GB 2213816A compounds” value on 5-HT3 receptors (rat vagus, comparison in words) is listed as “surprisingly more potent as 5-HT3 -antagonists”. Further, the minimal effective dose in assay [1] (setting [2]) was found to be 1 µg/kg. Further, the “potency as potential anxiolytic compared with GB 2236528A and GB 2213816A compounds” value in assay [1] (mouse light/dark box, s.c., comparison in words) is “surprisingly more potent”.
Consider `O=C(NC(=O)c1ccccc1OCC1CC1)NC1CC2CCC(C1)N2` (stereo not shown) [Example 1], for which, in assay [1] (s.c., significant (p<0.05) increase in rearing activity in the light section), the “minimum effective dose (MED)” value stood at 0.1 mg/kg.

The record behind these values is patent US5436251A, “Treatment of anxiety and gastrointestinal disorders with azabicyclo carbonyl-2-(cyclopropylmethyloxy)benzamide” (John Wyeth & Brother, Limited, priority 1992, dated 1995).
